Experimental data from patent US10568854B2, “Compositions and methods for treating kabuki syndrome and related disorders” (THE JOHNS HOPKINS UNIVERSITY, priority 2014, dated 2020).
Entries after “also recorded” stand apart in the source; their conditions may differ.

Assays:
[1] = test system: H3K4 trimethylation activity in Kmt2d^+/βGeo and Kmt2d^+/+ MEFs; test: H3K4me3 indicator in murine embryonic fibroblasts (MEFs); assay type: cell-based, mouse; conditions: Kmt2d^+/βGeo cells treated with HDAC inhibitor
Description: An H3K4 trimethylation reporter was also created. This reporter is based on the H3 tail on one end and the TBP associated factor III (TAFIII) homeodomain on the other end; the TAFIII homeodomain only identifies and binds to trimethylated K4 on H3. When the H3K4 site gets trimethylated, the TAFIII homeodomain can bind to the modified H3 tail and bring the two parts of the separated GFP in close proximity. The activity of the epigenetic modification system can be quantified through fluorescence.
(§1) Epigenetic reporter alleles: Epigenetic reporter alleles were synthesized (OriGene, Rockville, Md.) using published sequences for component elements (Baird et al. (1999) Proc. Nail. Acad. Sci. 96:11241-6; Souslova et al. (2007) BMC Biotechnol. 7:37). Single nucleotide mutations were created using the QuickChange Lightening kit (Agilent Technologies Inc, Santa Clara, Calif.). For H4ac indicator, K5R, K8R, K12R, K16R and K20R (MUT indicator) were introduced. For H3K4me3 indicator, K4Q and D890A/W891A and M882A (three separate constructs) were introduced. For transient transfections, mouse embryonic fibroblasts (see below) were transfected with Fugene HD (Promega, Madison, Wis.), 48 hours prior to FACS. […] For drug stimulation, drug was added to the media 24 hours prior to FACS. For stable transfections in T293 (American Type Culture Collection) cells, 10 μg/ml of Blastocidin (Life Technologies, Carlsbad, Calif.) was added to the media for several weeks. For stable transfection in MEFs, the reporter was transferred to a ViraPower Lentiviral Expression System (Life Technologies, Carlsbad, Calif.). After selection with Blastocidin, the drug of interest was added 24 hours prior to FACS. SAHA, AR-42 and MS275 were purchased from Selleck (Selleck Chemicals, Houston, Tex.). […] FACS data were analyzed using FlowJo (Tree Star Inc, Ashland, Oreg.). A plasmid expressing HDAC3 was acquired from Addgene (Cambridge, Mass., plasmid 13819) and transfected into a stable cell line carrying the H4 acetyl reporter allele.

[2] = test system: H3K4 trimethylation and histone acetylation; conditions: Huang et al. (2011); cited from earlier work
[3] = test system: H4ac indicator (H4 acetylation machinery activity) in HEK293 cells; test: H4ac (acetylation) indicator reporter assay, FACS; assay type: cell-based
Description: Design of the indicator constructs. A genetically encoded histone reporter allele system has been developed which can be used to monitor activity of any histone maintenance machinery component in live cells. Previously, FRET based epigenetic activity systems have been created (Lin and Ting (2004) Angew Chem Int Ed Engl. 24;43 (22):2940-3; Lin et al. (2004) J. Am. Chem. Soc. 19;126(19):5982-3; U.S. Pat. No. 7,056,683). However, FRET-based assays need a complex technological setup which is not widely available and FRET-based assays have been much more difficult to introduce into transgenic mouse models. […] The particular construct design is based on a circularly permutated green fluorescent protein (GFP) that lacks fluorescence unless the two parts of GFP are brought into close proximity by external forces (Baird et al. (1999) Proc. Natl. Acad. Sci. U.S.A. 28;96(20):11241-6). The constructs are targeted to the nucleus through a nuclear localization signal (NLS). Mutants were also created that knocked out the activity of the indicator allele.
The acetyl reporter protein quantifies the activity of the acetylation machinery (acetylation of H4 specifically at the 5th, 8th, 12th and 16th Lysine's) and comprises an H4 tail on one end (the target for acetylation) and a TBP associated factor II (TAFII) bromodomain on the other end of the reporter protein. The TAFII bromodomain only recognizes and binds to the acetylated H4 tail, resulting in reconstitution of GFP structure and function (i.e. fluorescence). Therefore, the reporter protein has no fluorescence unless it is acetylated by the acetylation system of the nucleus of the cell.
as §1

EdU+ cells in the GCL = test: EdU incorporation in the GCL (proliferation / survival); assay type: in vivo, mouse; conditions: 10 mM/kg/day IP, two weeks, sodium salt
Description: Animals and treatment: The mouse model, Kmt2d^+/βGeo, also known as (Mll2Gt^(RRt024)Byg), was generated by BayGenomics (University of California, CA) through insertion of a gene trapped vector, and was used on a fully backcrossed C57BL/6J background. The original unbalanced (6:1 fat to protein ration) diet was purchased from Bio-Sery (Ketogenic Diet AIN-76A-Modified High Fat Paste F3666; Flemington, N.J.), while the balanced diet (4:1 ratio) was also from Bio-Serv (F6689 Rodent Diet, Ketogenic, Fat: Paste). Mice were treated for two weeks on the diet, with the paste replaced several times a week. During MWM testing, given the length of testing (week), the mice were treated for three weeks.
BHB injection and BHB assay: For injections into mice, (R)-(−)-3-hydroxybutyric acid sodium salt (Santa Cruz Biotechnology, Dallas, Tex.) was used at an experimental dose of (10 mM/kg). To detect BHB in the urine (from either injections or ketogenic diet), the β-Hydroxybutyrate (Ketone Body) Colorimetric Assay Kit (Cayman Chemical Company, Ann Arbor, Mich.) was used. […]
Perfusion, sectioning and, staining: For perfusion, cryosectioning and immunofluorescence staining, see Bjornsson et al. (2014). […] EdU quantification was done blinded to genotype. Labeled cells were counted in every sixth slice in the granule cell layer of the dentate gyrus and average number per slice was calculated for each brain. […]

[4] = test system: H4ac indicator in HEK 293 cells; test: H4ac indicator experiment with BHB, FACS; assay type: cell-based; conditions: 24 hours before FACS; sodium salt
Experimental: (§2) Indicator experiments: HEK 293 cells were transfected with lipofectamine LTX (Invitrogen, Carlsbad, Calif.) with either the H3K4me3 indicator or the H4ac indicator, synthesized by OriGene Technologies (Rockville, Md.). Stable transfections were maintained through positive selection with blastacidin […] (Life Technologies, Grand Island, N.Y.). For BHB treatment, (R)-(−)-3-Hydroxybutyric acid sodium salt (Santa Cruz Biotechnology) was added to the medium 24 hours before FACS analysis (FACSVerse, BD Biosciences, Franklin Lakes, N.J.). Data was analyzed using FlowJo (Tree Star Inc., Ashland, Oreg.).

[5] = BHB in urine, colorimetric assay; assay type: in vivo, mouse
Experimental: BHB injection and BHB assay: For injections into mice, (R)-(−)-3-hydroxybutyric acid sodium salt (Santa Cruz Biotechnology, Dallas, Tex.) was used at an experimental dose of (10 mM/kg). To detect BHB in the urine (from either injections or ketogenic diet), the β-Hydroxybutyrate (Ketone Body) Colorimetric Assay Kit (Cayman Chemical Company, Ann Arbor, Mich.) was used. Urine from injections was drawn approximately 2 hours after injection and urine from mice on the ketogenic diet was taken in the early afternoon (unless otherwise stated in the text).

[6] = test system: DCX positive cells in the GCL; test: Doublecortin positive fraction of the GCL (Example 2); assay type: in vivo, mouse; conditions: 10 mM/kg/day IP, two weeks, sodium salt
Experimental: Perfusion, sectioning and, staining: For perfusion, cryosectioning and immunofluorescence staining, see Bjornsson et al. (2014). EdU (Life Sciences) in PBS/6% DMSO (10 mg/ml) injections (50 μg/g/day) were performed either with seven consecutive days followed by immediate perfusion or seven consecutive days of injection and then perfusion on the 30th day after the first injection. […] EdU was imaged with Click-iT EdU Alexa Flour 488 Imaging Kit (Invitrogen) as well as DAPI mounting with Vectamount (Vector Laboratories, Burlingame, Calif.). EdU quantification was done blinded to genotype. Labeled cells were counted in every sixth slice in the granule cell layer of the dentate gyrus and average number per slice was calculated for each brain. For immunofluorescence, primary antibodies included Doublecortin (Santa Cruz Biotechnology, 1:200 goat), trimethylated H3K4 (Cell Signaling, Danvers, Mass.; 1:500 rabbit), and Acetylated H3K9 and […] (Cell Signaling, 1:5000). Primary antibodies were incubated overnight at 4° C. in blocking buffer. Doublecortin area measurement: The DCX positive fraction of the GCL was measured by taking 4× pictures and using the Bezier tool on NS elements 2.0 software (Nikon) to measure the area of cells that expressed DCX as well as the entire granule cell layer.

[7] = test system: H3K4me3 indicator in HEK 293 cells; test: H3K4me3 indicator experiment with BHB, FACS; assay type: cell-based; conditions: 24 hours before FACS; sodium salt
Experimental: as §2

Nc1ccccc1NC(=O)c1ccc(CNC(=O)OCc2cccnc2)cc1 [MS275, Pyridin-3-ylmethyl N-[[4-[(2-aminophenyl)carbamoyl]phenyl]methyl]carbamate]
H3K4 trimethylation activity [1]: enhanced; also recorded: improved | effect on H3K4 trimethylation and histone acetylation [2]: increase H3K4 trimethylation and histone acetylation

O=C(CCCCCCC(=O)Nc1ccccc1)NO [SAHA, N′-hydroxy-N-phenyl-octanediamide]
cells easily discriminated from auto fluorescence (H4ac indicator) ([3]; 1 μM of SAHA): 5% | cells easily discriminated from auto fluorescence (H4ac indicator) ([3]; 2.5 μM of SAHA): 20% | cells easily discriminated from auto fluorescence (H4ac indicator) ([3]; 7.5 μM of SAHA): 40% | cells easily discriminated from auto fluorescence (H4ac indicator) ([3]; 10 μM of SAHA): 45% | fluorescence response of acetylation indicator to increasing amounts of drug ([3]; FACS, culture systems): linear fluorescence response; also recorded: increasing fluorescence | acetylation of the indicator ([3]; FIG. 18A): increases acetylation of the indicator | H4ac indicator signal upon stimulation ([3]; HEK293 cells stably expressing the H4ac indicator): increased signal

C[C@@H](O)CC(=O)[O-].[Na+] [BHB, (R)-(−)-3-hydroxybutyric acid sodium salt]
EdU positive cells, treated Kmt2d^+/βGeo versus Kmt2d^+/+ (EdU+ cells in the GCL): did not recover back; also recorded: did not lead to a full recovery | EdU positive cells (proliferation), treated versus vehicle (EdU+ cells in the GCL; Kmt2d^+/βGeo): significant increase in EdU expression; also recorded: significant increase in EdU positive cells | H4Ac indicator response to increased amounts in culture media [4]: dose-dependent increased activity; also recorded: dose-dependent response | BHB level in the urine over a 12 hour day after one injection ([5]; 10 mM/kg at 9 AM): decreased to vehicle injected levels over a matter of hours | BHB level in the urine after injection ([5]; 10 mM/kg, urine after 1.5 hours): most similar to treatment with a ketogenic diet | time of maximal drug activity ([5]; after injection): 1.5 h | DCX positive cells, treated Kmt2d^+/βGeo versus treated Kmt2d^+/+ [6]: not to Kmt2d^+/+ BHB treated levels; also recorded: did not lead to a full recovery | DCX positive cells, treated versus vehicle ([6]; Kmt2d^+/βGeo): increase in DCX expression; also recorded: significant increase in DCX positive cells | H3K4me3 indicator response to increased amounts in culture media [7]: dose-dependent increased activity; also recorded: dose-dependent response
